Experimental data as given in US10399985B2, “(Hetero)aryl imidazoles/pyrazoles for treatment of neurological disorders” (Hoffmann-La Roche Inc., priority 2014, dated 2019).

Target: human PDE10A (Homo sapiens (Human), UniProt Q9Y233)
Experiment: human PDE10A full length Scintillation Proximity Assay (SPA)
Type: biochemical
Conditions: 50 nM cGMP and 50 nM [3H]-cGMP, 20 minutes at room temperature
Method: The following test was carried out in order to determine the activity of the compounds of the present invention. PDE10 activity of the compounds of the present invention was determined using a Scintillation Proximity Assay (SPA)-based method similar to the one previously described (Fawcett, L. et al., ProcNatl Acad Sci USA (2000) 97(7):3702-3707).
The human PDE10A full length assay was performed in 96-well micro titer plates. The reaction mixture of 50 μl contained 20 mM HEPES pH=7.5/10 mM MgCl2/0.05 mg/ml BSA (Sigma cat. # A-7906), 50 nM cGMP (Sigma, cat. # G6129) and 50 nM [3H]-cGMP (GE Healthcare, cat. # TRK392 S. A. 13.2 Ci/mmol), 3.75 ng/well PDE10A enzyme (Enzo Life Science, Lausen, Switzerland cat # SE-534) with or without a specific test compound. A range of concentrations of the potential inhibitor was used to generate data for calculating the concentration of inhibitor resulting in 50% of the effect (e.g. IC50, the concentration of the competitor inhibiting PDE10A activity by 50%). Non-specific activity was tested without the enzyme. The reaction was initiated by the addition of the substrate solution (cGMP and [3H]-cGMP) and allowed to progress for 20 minutes at room temperature. The reaction was terminated by adding 25 μl of YSi-SPA scintillation beads (GE Healthcare, cat. # RPNQ0150) in 18 mM zinc sulphate solution (stop reagent). After 1 h under shaking, the plate was centrifuged one minute at 170 g to allow beads to settle. Afterwards, radioactive counts were measured on a Perkin Elmer TopCount Scintillation plate reader.

Chain of human PDE10A (Q9Y233 other isoform, or with tags, fused parts or gaps): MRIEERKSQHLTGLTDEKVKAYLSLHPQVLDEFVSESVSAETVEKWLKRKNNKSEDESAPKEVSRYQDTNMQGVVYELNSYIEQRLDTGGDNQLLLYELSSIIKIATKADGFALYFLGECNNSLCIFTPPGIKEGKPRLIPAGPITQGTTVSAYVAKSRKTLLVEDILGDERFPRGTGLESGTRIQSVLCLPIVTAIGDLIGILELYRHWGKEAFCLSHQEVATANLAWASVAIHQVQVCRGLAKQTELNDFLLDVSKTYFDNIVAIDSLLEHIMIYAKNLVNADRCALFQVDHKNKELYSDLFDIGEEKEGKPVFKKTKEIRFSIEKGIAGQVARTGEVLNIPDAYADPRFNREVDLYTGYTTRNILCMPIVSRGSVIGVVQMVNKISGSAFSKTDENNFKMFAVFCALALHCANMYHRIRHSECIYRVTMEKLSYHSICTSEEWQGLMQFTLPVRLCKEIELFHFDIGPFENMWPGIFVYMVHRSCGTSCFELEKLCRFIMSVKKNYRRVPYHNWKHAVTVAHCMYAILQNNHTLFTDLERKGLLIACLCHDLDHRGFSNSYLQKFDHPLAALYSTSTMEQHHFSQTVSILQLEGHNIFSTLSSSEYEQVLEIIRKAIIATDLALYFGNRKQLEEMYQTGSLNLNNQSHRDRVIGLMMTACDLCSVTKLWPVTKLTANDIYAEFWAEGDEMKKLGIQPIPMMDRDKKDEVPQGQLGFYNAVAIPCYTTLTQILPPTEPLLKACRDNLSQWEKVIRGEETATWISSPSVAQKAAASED

| Compound | IC50 [nM] |
| --- | --- |
| Cc1nc2ccc(C#Cc3nc(-c4ccccc4)cn3C)nn2c1CO [Example 3, (2-Methyl-6-((1-methyl-4-phenyl-1H-imidazol-2-yl)ethynyl)imidazo[1,2-b]pyridazin-3-yl)methanol] | 1 |
| Cc1nn2ccc(CCc3nc(-c4ccccc4)cn3C)nc2c1C [Example 16, 2,3-Dimethyl-5-(2-(1-methyl-4-phenyl-1H-imidazol-2-yl)ethyl)pyrazolo[1,5-a]pyrimidine] | 2.4 |
| Cc1c(C#N)nc2ccc(/C=C/c3nc(-c4ccccc4)cn3C)nn12 [Example 12, (E)-3-methyl-6-(2-(1-methyl-4-phenyl-1H-imidazol-2-yl)vinyl)imidazo[1,2-b]pyridazine-2-carbonitrile] | 13.8 |
| Cc1nc2ccc(CCc3nc(-c4ccncc4)cn3C)nn2c1C [Example 25, 2,3-Dimethyl-6-(2-(1-methyl-4-(pyridin-4-yl)-1H-imidazol-2-yl)ethyl)imidazo[1,2-b]pyridazine] | 32.3 |
| Cn1cc(-c2ccccc2)nc1CCc1ccc2nc(C3CC3)c(CO)n2n1 [Example 18, (2-Cyclopropyl-6-(2-(1-methyl-4-phenyl-1H-imidazol-2-yl)ethyl)imidazo[1,2-b]pyridazin-3-yl)methanol] | 656 |
| Cc1nc2ccc(CCc3nc(-c4ccccc4)nn3C)nn2c1C [Example 21, 2,3-Dimethyl-6-(2-(1-methyl-3-phenyl-1H-1,2,4-triazol-5-yl)ethyl)imidazo[1,2-b]pyridazine] | 27.7 |
| Cc1nc2ccc(CCc3nc(-c4ccccn4)cn3C)nn2c1C [Example 27, 2,3-Dimethyl-6-(2-(1-methyl-4-(pyridin-2-yl)-1H-imidazol-2-yl)ethyl)imidazo[1,2-b]pyridazine] | 3.3 |
| Cc1nc2ccc(CCc3nc(-c4ccnnc4)cn3C)nn2c1C [Example 28, 2,3-Dimethyl-6-(2-(1-methyl-4-(pyridazin-4-yl)-1H-imidazol-2-yl)ethyl)imidazo[1,2-b]pyridazine] | 81.2 |
| Cc1cc(CCc2nc(-c3ccccn3)cn2C)nn2c(C)c(C(F)(F)F)nc12 [Example 30, 3,8-Dimethyl-6-(2-(1-methyl-4-(pyridin-2-yl)-1H-imidazol-2-yl)ethyl)-2-(trifluoromethyl)imidazo[1,2-b]pyridazine] | 3.7 |
| Cc1nc2ccc(CCc3nc(-c4cccnc4)cn3C)nn2c1C [Example 24, 2,3-Dimethyl-6-(2-(1-methyl-4-(pyridin-3-yl)-1H-imidazol-2-yl)ethyl)imidazo[1,2-b]pyridazine] | 1690 |
| Cc1nc2ccc(CCc3nc(-c4ccccc4)cn3C)nn2c1CO [Example 15, (2-Methyl-6-(2-(1-methyl-4-phenyl-1H-imidazol-2-yl)ethyl)imidazo[1,2-b]pyridazin-3-yl)methanol] | 3.4 |
| Cn1cc(-c2ccccc2)nc1C#Cc1ccc2nc(C3CC3)c(CO)n2n1 [Example 6, (2-Cyclopropyl-6-((1-methyl-4-phenyl-1H-imidazol-2-yl)ethynyl)imidazo[1,2-b]pyridazin-3-yl)methanol] | 1.9 |
| Cc1nc2ccc(/C=C/c3nc(-c4ccccc4)nn3C)nn2c1C [Example 11, (E)-2,3-Dimethyl-6-(2-(1-methyl-3-phenyl-1H-1,2,4-triazol-5-yl)vinyl)imidazo[1,2-b]pyridazine] | 1.3 |
| Cc1nc2ccc(CCc3nc(-c4cncnc4)cn3C)nn2c1C [Example 26, 2,3-Dimethyl-6-(2-(1-methyl-4-(pyrimidin-5-yl)-1H-imidazol-2-yl)ethyl)imidazo[1,2-b]pyridazine] | 98.5 |
| Cc1nn2ccc(C#Cc3nc(-c4ccccc4)cn3C)nc2c1C [Example 4, 2,3-Dimethyl-5-((1-methyl-4-phenyl-1H-imidazol-2-yl)ethynyl)pyrazolo[1,5-a]pyrimidine] | 1.5 |
| Cc1c(C(F)F)nc2ccc(C#Cc3nc(-c4ccccc4)cn3C)nn12 [Example 7, 2-(Difluoromethyl)-3-methyl-6-((1-methyl-4-phenyl-1H-imidazol-2-yl)ethynyl)imidazo[1,2-b]pyridazine] | 46.6 |
| Cc1nc2ccc(CCc3nc(-c4cnccn4)cn3C)nn2c1C [Example 29, 2,3-Dimethyl-6-(2-(1-methyl-4-(pyrazin-2-yl)-1H-imidazol-2-yl)ethyl)imidazo[1,2-b]pyridazine] | 33.2 |
| Cc1nc2c(C)c(C)c(OCc3nc(-c4ccccc4)cn3C)nn2c1C [Example 34, 2,3,7,8-Tetramethyl-6-((1-methyl-4-phenyl-1H-imidazol-2-yl)methoxy)imidazo[1,2-b]pyridazine] | 1.7 |
| Cc1nc2ccc(CCc3nc(-c4ncccn4)cn3C)nn2c1C [Example 23, 2,3-Dimethyl-6-(2-(1-methyl-4-(pyrimidin-2-yl)-1H-imidazol-2-yl)ethyl)imidazo[1,2-b]pyridazine] | 9.2 |
| Cc1c(C2CC2)nc2ccc(C#Cc3nc(-c4ccccc4)cn3C)nn12 [Example 10, 2-Cyclopropyl-3-methyl-6-((1-methyl-4-phenyl-1H-imidazol-2-yl)ethynyl)imidazo[1,2-b]pyridazine] | 12 |

Continued, values first:

| IC50 [nM] | Compound |
| --- | --- |
| 3.4 | Cc1nn2ccc(OCc3nc(-c4ccccc4)cn3C)nc2c1C [Example 46, 2,3-Dimethyl-5-((1-methyl-4-phenyl-1H-imidazol-2-yl)methoxy)pyrazolo[1,5-a]pyrimidine] |
| 51.6 | Cc1nc2ccc(OCc3nc(-c4ccccc4)nn3C)nn2c1C [Example 33, 2,3-Dimethyl-6-((1-methyl-3-phenyl-1H-1,2,4-triazol-5-yl)methoxy)imidazo[1,2-b]pyridazine] |
| 11.8 | COc1cc(OCc2nc(-c3ccccc3)cn2C)nn2c(C)c(C(F)(F)F)nc12 [Example 41, 8-Methoxy-3-methyl-6-((1-methyl-4-phenyl-1H-imidazol-2-yl)methoxy)-2-(trifluoromethyl)imidazo[1,2-b]pyridazine] |
| 23.7 | Cc1c(C#N)nc2ccc(OCc3nc(-c4ccccc4)cn3C)nn12 [Example 40, 3-Methyl-6-((1-methyl-4-phenyl-1H-imidazol-2-yl)methoxy)imidazo[1,2-b]pyridazine-2-carbonitrile] |
| 133 | Cc1cn2nc(OCc3nc(-c4ccccc4)cn3C)ccc2n1 [Example 38, 2-Methyl-6-((1-methyl-4-phenyl-1H-imidazol-2-yl)methoxy)imidazo[1,2-b]pyridazine] |
| 328 | Cn1cc(-c2ccccc2)nc1COc1ccc2nc(C(F)(F)F)cn2n1 [Example 45, 6-((1-Methyl-4-phenyl-1H-imidazol-2-yl)methoxy)-2-(trifluoromethyl)imidazo[1,2-b]pyridazine] |
| 363 | Cc1c(CO)nc2ccc(OCc3nc(-c4ccccc4)cn3C)nn12 [Example 42, (3-Methyl-6-((1-methyl-4-phenyl-1H-imidazol-2-yl)methoxy)imidazo[1,2-b]pyridazin-2-yl)methanol] |
| 114 | Cc1c(C(N)=O)nc2ccc(OCc3nc(-c4ccccc4)cn3C)nn12 [Example 39, 3-Methyl-6-((1-methyl-4-phenyl-1H-imidazol-2-yl)methoxy)imidazo[1,2-b]pyridazine-2-carboxamide] |
| 167 | Cn1cc(-c2ccccc2)nc1COc1ccc2nc(C3CC3)c(CO)n2n1 [Example 43, (2-Cyclopropyl-6-((1-methyl-4-phenyl-1H-imidazol-2-yl)methoxy)imidazo[1,2-b]pyridazin-3-yl)methanol] |
| 20.5 | Cc1c(C(F)(F)F)nc2ccc(CCc3nc(-c4ccccc4)cn3C)nn12 [Example 17, 3-Methyl-6-(2-(1-methyl-4-phenyl-1H-imidazol-2-yl)ethyl)-2-(trifluoromethyl)imidazo[1,2-b]pyridazine] |
| 169 | Cn1cc(-c2ccccc2)nc1COc1ccc2nc(C3CC3)cn2n1 [Example 37, 2-Cyclopropyl-6-((1-methyl-4-phenyl-1H-imidazol-2-yl)methoxy)imidazo[1,2-b]pyridazine] |
| 34.6 | Cc1c(C(F)(F)F)nc2ccc(OCc3nc(-c4ccccc4)cn3C)nn12 [Example 36, 3-Methyl-6-((1-methyl-4-phenyl-1H-imidazol-2-yl)methoxy)-2-(trifluoromethyl)imidazo[1,2-b]pyridazine] |
| 264 | CCc1nc2ccc(OCc3nc(-c4ccccc4)cn3C)nn2c1C [Example 35, 2-Ethyl-3-methyl-6-((1-methyl-4-phenyl-1H-imidazol-2-yl)methoxy)imidazo[1,2-b]pyridazine] |
| 7.2 | Cc1nc2ccc(OCc3nc(-c4ccccc4)cn3C)nn2c1C [Example 32, 2,3-Dimethyl-6-((1-methyl-4-phenyl-1H-imidazol-2-yl)methoxy)imidazo[1,2-b]pyridazine] |
| 6.4 | Cc1c(C(F)F)nc2ccc(CCc3nc(-c4ccccc4)cn3C)nn12 [Example 19, 2-(Difluoromethyl)-3-methyl-6-(2-(1-methyl-4-phenyl-1H-imidazol-2-yl)ethyl)imidazo[1,2-b]pyridazine] |
| 1 | Cn1cc(-c2ccccc2)nc1C#Cc1ccc2nc(C(F)(F)F)cn2n1 [Example 8, 6-(1-Methyl-4-phenyl-1H-imidazol-2-ylethynyl)-2-trifluoromethyl-imidazo[1,2-b]pyridazine] |
